Experimental data: patent US20220081434A1, “DIHYDROISOQUINOLINE COMPOUND” (SUZHOU ARK BIOPHARMACEUTICAL CO., LTD., priority 2019, published 2022)
Read-outs that look alike come from different tables or passages of the source.

Assays:
[1] = Pharmacokinetic experiments in ICR mice (plasma); type: in vivo; details: for AUC(0-t): read-out: AUC0-12
Procedure: Multiple compounds in the Examples of the present disclosure were administered to ICR mice to conduct pharmacokinetic experiments. A single intravenous injection (with a dose of 2 mg/kg) and a single oral administration (with a dose of 10 mg/kg) were administered respectively. Blood was respectively collected prior to administration and 5 minutes, 15 minutes, 30 minutes, 1 hour, 2 hours, 4 hours, 8 hours, 12 hours and 24 hours after administration, and the concentration of the test compound in plasma was determined. Plasma pharmacokinetic data of the control compound (obtained from Example 28 in patent WO2018130152 A1) and the compounds of Examples 10 and 19 in the present disclosure in mice were as shown in the following Table 5 to Table 7.

[2] = test system: hepatitis B surface antigen (HBsAg); experiment: Determination of hepatitis B surface antigen (HBsAg) in HepG2.2.15 cell supernatant; type: cell-based, hepatitis B virus (HepG2.2.15 cells); details: Hepatitis B virus, HepG2.2.15, 96 h, read-out: HBsAg inhibitory activity IC50
Procedure: (§1) The full genome of HBV was inserted into an […] cell, which could therefore express HBV continuously (Sells et al, Proc Natl Acad Sci USA. 1987 February; 84 (4):1005-9). The culture condition was DMEM medium containing 10% serum and […] G418. Cells were placed in an incubator containing 5% CO2 and cultured at 37° C.
HepG2.2.15 cells were seeded into a 96-well culture plate at a density of 3×10^4 cells/well. On the next day, the drug dissolved in DMSO was subjected to a 5-fold dilution and then added to the cells. 0.5% DMSO was added separately as control. The supernatant was collected after 4 days of drug action, and the content of hepatitis B surface antigen was determined.
The determination of hepatitis B surface antigen was carried out by using a kit for quantitative determination of hepatitis B virus surface antigen (chemiluminescence method). The specific operations were as follows. 50 μL cell culture supernatant was taken and transferred to the assay plate. 50 μL of enzyme-linked reagent was added thereto and the assay plate was sealed. Incubation was carried out at room temperature for 1 hour. Afterwards, the assay plate was washed six times with PBS, and finally, the residual liquid was removed by shaking the plate. 25 μL of substrates A and B were added respectively, and the determination was conducted by using a microplate reader (Tecan Infinite® F200) after ten minutes of reaction. IC50 was calculated after fitting the dose-response curve.

HBV DNA = experiment: Determination of HBV DNA in HepG2.2.15 cell supernatant by qPCR; type: cell-based, hepatitis B virus (HepG2.2.15 cells); details: Hepatitis B virus, 168 h, HepG2.2.15 cells, supernatant after a total of 7 days of drug action, read-out: Inhibitory activity against HBV DNA IC50
Procedure: as §1
HepG2.2.15 cells were seeded into a 96-well culture plate at a density of 4×10^4 cells/well. After 4 hours, the drug dissolved in DMSO was subjected to a 4-fold dilution and then added to cells. 0.5% DMSO was added separately as control. On the 4th day of drug action, the original supernatant was removed and then the drug was added thereto again. The supernatant was collected after a total of 7 days of drug action and treated with lysis buffer. The determination of hepatitis B DNA was carried out by real-time fluorescence-based quantitative polymerase chain reaction (qPCR). After the completion of the qPCR, data were exported from the instrument and analyzed, and IC50 indicating antiviral activity was calculated after fitting the dose-response curve.

[3] = mouse, single intravenous injection 2 mg/kg, plasma
[4] = mouse, single oral administration 10 mg/kg, plasma

SMILES: COCc1ncc(-c2cc3c(cc2OC)-c2cc(=O)c(C(=O)O)cn2C(C(C)(C)C)C3)s1 (centres unmarked) [Example 10, 6-tert-butyl-10-methoxy-9-[2-(methoxymethyl)thiazol-5-yl]-2-oxo-6,7-dihydro-2H-pyrido[2,1-a]isoquinoline-3-carboxylic Acid]
- bioavailability ([1]; mouse, plasma, oral 10 mg/kg vs intravenous 2 mg/kg, read-out: F (bioavailability)): 33.9%
- AUC(0-inf) [1, 3]: 804 ng·h/mL
- Cmax [1, 3]: 423 ng/mL
- Tmax [1, 3]: 0.08 h
- clearance [1, 3]: 41.4 mL/min/kg
- half-life [1, 3]: 1.9 h
- AUC(0-t) [1, 3]: 796 ng·h/mL
- Vd ([1]; mouse, single intravenous injection 2 mg/kg, plasma, read-out: Vss): 5.42 L/kg
- AUC(0-inf) [1, 4]: 1400 ng·h/mL
- Cmax [1, 4]: 458 ng/mL
- Tmax [1, 4]: 0.5 h
- half-life [1, 4]: 2.6 h
- AUC(0-t) [1, 4]: 1350 ng·h/mL
- plasma exposure compared with the control compound ([1]; same dose, after intravenous injection and oral administration): significantly higher
- IC50 [2]: 0.2 nM
- IC50 (HBV DNA): 0.13 nM

SMILES: COc1cc2c(cc1-c1cnc(N3CCC(CO)CC3)s1)CC(C(C)(C)C)n1cc(C(=O)O)c(=O)cc1-2 (centres unmarked) [Example 2, 6-tert-butyl-9-{2-[4-(hydroxymethyl)piperidin-1-yl]thiazol-5-yl}-10-methoxy-2-oxo-6,7-dihydro-2H-pyrido[2,1-a]isoquinoline-3-carboxylic Acid]
- IC50 [2]: 0.06 nM
- IC50 (HBV DNA): 0.11 nM

SMILES: COc1cc2c(cc1-c1cnc(N3CC(F)C3)s1)CC(C(C)(C)C)n1cc(C(=O)O)c(=O)cc1-2 (centres unmarked) [Example 11, 6-tert-butyl-9-[2-(3-fluoroazetidin-1-yl)thiazol-5-yl]-10-methoxy-2-oxo-6,7-dihydro-2H-pyrido[2,1-a]isoquinoline-3-carboxylic Acid]
- IC50 [2]: 0.09 nM
- IC50 (HBV DNA): 0.13 nM

SMILES: COc1cc2c(cc1-c1cnc(COC(F)F)s1)CC(C(C)(C)C)n1cc(C(=O)O)c(=O)cc1-2 (centres unmarked) [Example 23, 6-tert-butyl-9-{2-[(difluoromethoxy)methyl]thiazol-5-yl}-10-methoxy-2-oxo-6,7-dihydro-2H-pyrido[2,1-a]isoquinoline-3-carboxylic Acid]
- IC50 [2]: 0.2 nM
- IC50 (HBV DNA): 0.84 nM

SMILES: COc1cc2c(cc1-c1cnc(N3CCC(C)(O)CC3)s1)CC(C(C)(C)C)n1cc(C(=O)O)c(=O)cc1-2 (centres unmarked) [Example 7, 6-tert-butyl-9-[2-(4-hydroxy-4-methylpiperidin-1-yl)thiazol-5-yl]-10-methoxy-2-oxo-6,7-dihydro-2H-pyrido[2,1-a]isoquinoline-3-carboxylic Acid]
- IC50 [2]: 0.08 nM
- IC50 (HBV DNA): 0.15 nM

SMILES: COc1cc2c(cc1-c1cnc(C(C)O)s1)CC(C(C)(C)C)n1cc(C(=O)O)c(=O)cc1-2 (centres unmarked) [Example 16, 6-tert-butyl-9-[2-(1-hydroxyethyl)thiazol-5-yl]-10-methoxy-2-oxo-6,7-dihydro-2H-pyrido[2,1-a]isoquinoline-3-carboxylic Acid]
- IC50 [2]: 0.1 nM
- IC50 (HBV DNA): 0.41 nM
